Experimental findings from US6498163B1, “Pyrido[2,3-D]pyrimidines and 4-aminopyrimidines as inhibitors of cellular proliferation” (Warner-Lambert Company, priority 1997, dated 2002) are described below.

pIC50: −log10 of the molar value. Where a name gives a salt, the structure may show the parent alone. Read-outs that look alike come from different tables or passages of the source.

For orientation: melting point means the temperature of the solid-liquid transition.

Data set [1] deals with cdk4/D (Homo sapiens, UniProt P11802). In words: Cyclin-dependent kinase 4 (cdk4) assay. Conditions: for cdk4/D % inhibition at 40 μM: Table 2. The data set is classed as biochemical. On the procedure:
As noted above, the compounds of this invention are potent inhibitors of cyclin-dependent kinases, and accordingly, are useful in treating and preventing atherosclerosis, and other cell proliferative disorders like cancer. […] A typical assay, for instance, measures inhibitory activity against the cyclin D dependent kinase 4 enzyme (cdk4/D). […] The cdk 4 assay was carried out as follows.
Cyclin-Dependent Kinase 4 (cdk4) Assay
The total volume was 0.1 mL containing a final concentration of 20 mM TRIS (tris[hydroxymethyl]aminomethane), at pH 7.4, 50 mM NaCl, 1 mM dithiothreitol, 10 mM MgCl2, 25 μM ATP containing 0.25 μCi of [^32P]ATP, 20 ng of cdk4, 1 μg of retinoblastoma, and appropriate dilutions of a compound of the present invention. All components except the ATP were added to the wells, and the plate was placed on a plate mixer for 2 minutes. The reaction was started by adding [^32P]ATP and the plate was incubated at 25° C. for 15 minutes. The reaction was terminated by addition of 0.1 mL of 20% trichloroacetic acid (TCA). The plate was kept at 4° C. for at least 1 hour to allow the substrate to precipitate. The wells were then washed five times with 0.2 mL of 10% TCA and ^32P incorporation was determined with a beta plate counter (Wallac Inc., Gaithersburg, Md.).

Data set [2] concerns the target T1, PDGF-β receptor tyrosine kinase (Mus musculus, UniProt P05622).
T1 construct: amplify a fragment of DNA that codes for the intracellular tyrosine kinase domain; made in house; host or cells: SF9 insect cells (baculovirus)
The data set is described as follows: PDGF receptor tyrosine kinase assay. The data set is classed as biochemical. Particulars: Table 4, Formula II compound. As for the experimental part: (§1) The compounds of Formulas I and II also have shown good inhibitory activity against certain growth factor receptor tyrosine kinase enzymes, including fibroblast growth factor (FGF) and platelet derived growth factor (PDGF). […] The invention compounds range in IC50 inhibition against FGF tyrosine kinase generally from about 0.004 to about 40 μM. […] The assays used to determine these activities were carried out as follows:
(§2) PDGF and EGF Receptor Tyrosine Kinase Assays
(§3) Full-length cDNAs for the mouse PDGF-β and human FGF-1 (flg) receptor tyrosine kinases were obtained from J. Escobedo and prepared as described in J. Biol. Chem., 1991;262:1482-1487. PCR primers were designed to amplify a fragment of DNA that codes for the intracellular tyrosine kinase domain. The fragment was inserted into a baculovirus vector, cotransfected with AcMNPV DNA, and the recombinant virus isolated. SF9 insect cells were infected with the virus to overexpress the protein, and the cell lysate was used for the assay. […] Filters were washed three times with 15% TCA containing 100 mM sodium pyrophosphate, and the radioactivity retained on the filters counted in a Wallac 1250 Betaplate reader. Nonspecific activity was defined as radioactivity retained on the filters following incubation of samples with buffer alone (no enzyme). […]

Data set [3] concerns the target T2, FGF-1 (flg) receptor tyrosine kinase (Homo sapiens, UniProt P11362).
T2 construct: amplify a fragment of DNA that codes for the intracellular tyrosine kinase domain; made in house; host or cells: SF9 insect cells (baculovirus)
In words: FGF receptor tyrosine kinase assay. Particulars: Table 4, Formula II compound. The data set is classed as biochemical. As for the experimental part: as §1, §2, §3

For data set [4], the target named is cdc2/cyclinB (Homo sapiens, UniProt P06493). The data set is described as follows: Cyclin-dependent kinase assay cdc2/cyclinB (cdk1/B). The data set is classed as biochemical. Conditions: Table 1.
Sequence of cdc2/cyclinB (P06493 whole entry, species assumed): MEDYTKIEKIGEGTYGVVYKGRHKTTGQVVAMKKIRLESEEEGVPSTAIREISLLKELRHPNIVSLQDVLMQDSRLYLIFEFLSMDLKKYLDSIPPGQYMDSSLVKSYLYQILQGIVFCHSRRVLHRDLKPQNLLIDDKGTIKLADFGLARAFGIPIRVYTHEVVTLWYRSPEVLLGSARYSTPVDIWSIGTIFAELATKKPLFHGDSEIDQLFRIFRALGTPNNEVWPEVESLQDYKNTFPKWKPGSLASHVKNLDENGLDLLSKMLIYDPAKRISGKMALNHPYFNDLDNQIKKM
Sequence of cdc2/cyclinB (P14635 whole entry partner, species assumed): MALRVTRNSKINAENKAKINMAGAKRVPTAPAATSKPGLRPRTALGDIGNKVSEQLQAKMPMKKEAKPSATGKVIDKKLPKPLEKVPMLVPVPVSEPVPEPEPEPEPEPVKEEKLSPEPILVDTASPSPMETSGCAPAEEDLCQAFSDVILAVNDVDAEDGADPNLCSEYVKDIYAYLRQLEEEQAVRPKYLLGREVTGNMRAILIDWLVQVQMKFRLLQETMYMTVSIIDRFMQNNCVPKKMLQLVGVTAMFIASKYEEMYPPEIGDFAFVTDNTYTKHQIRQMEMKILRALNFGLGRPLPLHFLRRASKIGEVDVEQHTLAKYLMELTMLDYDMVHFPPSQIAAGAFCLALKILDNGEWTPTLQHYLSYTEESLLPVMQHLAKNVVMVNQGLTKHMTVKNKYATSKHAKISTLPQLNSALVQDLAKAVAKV
The nature of data set [5]: Plasma levels in mice after dosing. The data set is classed as in vivo, nude mice. Particulars: intraperitoneally at 12 mg/kg, at 30 minutes following dosing. As for the experimental part: For example, the compound of Example 60 was administered orally at 5 mg/kg to mice, and plasma levels of about 200 nM were measured at 30 minutes following dosing. The compound was also administered intraperitoneally at 12 mg/kg and produced a peak plasma concentration of 10,000 nM at 30 minutes following dosing.

Data set [6] has as its system MCF-7 human mammary tumor xenografts. The data set is described as follows: MCF-7 human mammary tumor xenograft. Conditions: 5 to 20 mg/kg, q12 h×2; days 1-14, subcutaneous MCF-7 xenografts. The data set is classed as in vivo, female nude mice. Background: In xenograft studies the graft and the host belong to different species.
The mark [7] stands for this setting: Table 2, Formula II compounds, read-out: cdk4/IC50 IC50.

Sequence of cdk4/D (P11802 whole entry, species assumed): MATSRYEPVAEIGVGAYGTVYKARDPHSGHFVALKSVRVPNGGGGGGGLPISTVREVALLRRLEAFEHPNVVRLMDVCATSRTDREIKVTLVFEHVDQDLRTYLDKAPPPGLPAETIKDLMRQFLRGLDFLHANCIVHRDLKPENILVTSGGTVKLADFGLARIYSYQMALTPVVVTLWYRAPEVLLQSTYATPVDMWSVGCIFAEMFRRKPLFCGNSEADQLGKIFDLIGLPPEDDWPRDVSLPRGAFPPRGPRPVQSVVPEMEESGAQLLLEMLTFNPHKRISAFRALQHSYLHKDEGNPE
Sequence of cdk4/D (P24385 whole entry partner, species assumed): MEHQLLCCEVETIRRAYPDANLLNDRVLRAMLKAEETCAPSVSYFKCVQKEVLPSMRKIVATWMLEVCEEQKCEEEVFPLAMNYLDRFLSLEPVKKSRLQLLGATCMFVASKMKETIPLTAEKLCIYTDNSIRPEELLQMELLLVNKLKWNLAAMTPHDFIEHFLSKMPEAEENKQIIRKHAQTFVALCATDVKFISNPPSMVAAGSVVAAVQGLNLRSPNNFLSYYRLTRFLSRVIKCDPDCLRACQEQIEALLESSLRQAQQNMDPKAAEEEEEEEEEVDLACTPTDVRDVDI
T2 sequence (P11362 478-767 limits assumed): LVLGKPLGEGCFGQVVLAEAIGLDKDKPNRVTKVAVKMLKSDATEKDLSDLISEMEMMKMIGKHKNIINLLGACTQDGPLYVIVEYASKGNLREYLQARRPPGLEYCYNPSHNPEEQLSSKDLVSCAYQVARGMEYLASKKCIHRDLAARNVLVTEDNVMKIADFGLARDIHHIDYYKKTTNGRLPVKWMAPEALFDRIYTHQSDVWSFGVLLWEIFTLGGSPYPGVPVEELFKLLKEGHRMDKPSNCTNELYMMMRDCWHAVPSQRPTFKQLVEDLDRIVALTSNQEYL
T1 sequence (P05622 599-961 limits assumed): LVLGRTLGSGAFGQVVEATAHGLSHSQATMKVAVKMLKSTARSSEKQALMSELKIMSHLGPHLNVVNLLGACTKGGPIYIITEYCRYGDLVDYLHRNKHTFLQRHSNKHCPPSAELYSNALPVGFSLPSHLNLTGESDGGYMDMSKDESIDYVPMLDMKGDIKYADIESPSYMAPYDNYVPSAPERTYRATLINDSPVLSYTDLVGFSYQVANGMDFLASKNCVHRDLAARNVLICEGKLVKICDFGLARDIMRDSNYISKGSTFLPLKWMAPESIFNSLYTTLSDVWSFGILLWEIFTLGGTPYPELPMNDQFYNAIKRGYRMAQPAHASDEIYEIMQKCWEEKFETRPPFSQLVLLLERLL

With “3-(4-Ethylamino-2-phenylamino-pyrimidin-5-yl)-but-2-enoic acid ethyl ester [Example 73]”, in data set [1], the “cdk4/D % inhibition at 40 μM” value was determined as 58%. Still for that read-out and setting: then “3-(4-Ethylamino-2-phenylamino-pyrimidin-5yl)acrylonitrile [Example 72]”, with 18%. On to `CCn1c(=O)ccc2cnc(NC(C)C)nc21` (as salt: sulfate) [Example 47, 8-Ethyl-2-isopropylamino-8H-pyrido[2,3-d]pyrimidin-7-one], for which the melting point is 119 to 120 °C. Molecule `CCNc1nc(Nc2ccccc2)ncc1/C=C/C(=O)OCC` [Example 17, Ethyl 3-(4-Ethylamino-2-phenylamino-pyrimidin-5-yl)acrylate] registered a melting point of 125 to 126 °C. The pIC50 in data set [1] (setting [7]) is 5.70. In data set [2], this molecule showed a pIC50 of 5.43. The molecule also gave a pIC50 in data set [3] of 5.35. `CCOC(=O)/C=C/c1cnc(Nc2ccccc2)nc1N` [Example 28, Ethyl 3-(4-Amino-2-phenylamino-pyrimidin-5-yl)acrylate] had a melting point of 190 to 192 °C. In data set [1] (setting [7]), the pIC50 was 4.19.

Take `O=c1ccc2cnc(Nc3ccccc3)nc2n1CCCOCc1ccccc1` [Example 38, 8-(3-Benzyloxypropyl)-2-phenylamino-8H-pyrido[2,3-d]pyrimidin-7-one]: the pIC50 in data set [1] (Table 1, read-out: cdk4/D IC50) is 5.57; in data set [4], 4.53. Molecule `CCCCn1c(=O)ccc2cnc(Nc3ccccc3)nc21` [Example 40, 8-Butyl-2-phenylamino-8H-pyrido[2,3-d]pyrimidin-7-one] had a melting point of 183 to 184 °C. With `CC(C)n1c(=O)ccc2cnc(Nc3ccc(N4CCN(C)CC4)cc3)nc21` [Example 60, 8-Isopropyl-2-[4-(4-methylpiperazin-1-yl)-phenylamino]-8H-pyrido[2,3-d]pyrimidin-7-one], in data set [5], the peak plasma concentration is 10,000 nM. The tumor growth inhibition entry in data set [6] was “statistically insignificant tumor growth inhibitions”.

The molecule `CC(C)Nc1ncc2ccc(=O)n(C)c2n1` [Example 67, 2-Isopropylamino-8-methyl-8H-pyrido[2,3-d]pyrimidin-7-one] came in with a melting point of 148 to 149 °C.

The molecule `CCC(CC)n1c(=O)ccc2cnc(Nc3ccc(N4CCN(C)CC4)cc3)nc21` [Example 77, 8-(1-Ethylpropyl)-2-[4-(4-methylpiperazin-1-yl)-phenylamino]-8H-pyrido[2,3-d]pyrimidin-7-one] displayed a melting point of 155 to 157 °C. For the molecule `CCn1c(=O)c(C)cc2cnc(Nc3ccc(N4CCN(C)CC4)cc3)nc21` [Example 84], the pIC50 in data set [1] (Table 1, read-out: cdk4/D IC50) was 6.74. For `O=c1ccc2cnc(Nc3ccccc3)nc2n1-c1ccccc1` [Example 101, 2-Phenylamino-8-phenyl-8H-pyrido[2,3-]pyrimidin-7-one], the melting point lay in the range of 300 to 302 °C. `CN1CCN(c2ccc(Nc3ncc4ccc(=O)n(CCOCc5ccccc5)c4n3)cc2)CC1` [Example 140, 8-(2-Benzyloxy-ethyl)-2-[4-(4-methyl-piperazin-1-yl)-phenylamino]-8H-pyrido[2,3-d]pyrimidin-7-one]: the melting point fell in the range of 183 to 185 °C. `CN(C)CCCN1CCN(c2ccc(Nc3ncc4ccc(=O)n(C5CCCCC5)c4n3)cc2)CC1` [Example 144, 8-Cyclohexyl-2-{4-[4-(3-dimethylamino-propyl)-piperazin-1-yl]-phenylamino}-8H-pyrido[2,3-d]pyrimidin-7-one] displayed a melting point of 169 to 170 °C. With `CN(C)c1ccc(Nc2ncc3ccc(=O)n(C4CCCCC4)c3n2)cc1` [Example 147, 8-Cyclohexyl-2-(4-dimethylamino-phenylamino)-8H-pyrido[2,3-d]pyrimidin-7-one], the pIC50 in data set [1] (Table 1, read-out: cdk4/D IC50) was 6.32; in data set [4], 7.05. `O=c1ccc2cnc(Nc3ccc(N4CCCCC4)cc3)nc2n1C1CCCCCC1` [Example 163, 8-Cycloheptyl-2-(4-piperidin-1-yl-phenylamino)-8H-pyrido[2,3-d]pyrimidin-7-one] yielded a melting point of 201 to 202 °C. In turn, `CCOC(=O)C1CCN(c2ccc(Nc3ncc4ccc(=O)n(C5CCCCC5)c4n3)cc2)CC1` [Example 164, 1-[4-(8-Cyclohexyl-7-oxo-7,8-dihydro-pyrido[2,3-d]pyrimidin-2-ylamino)-phenyl]-piperidine-4-carboxylic acid ethyl ester] gave a melting point of 174 to 175 °C. The molecule `O=c1ccc2cnc(NCCN3CCCCC3)nc2n1C1CCCCC1` [Example 165, 8-Cyclohexyl-2-(2-piperidin-1-yl-ethylamino)-8H-pyrido[2,3-d]pyrimidin-7-one] had a melting point of 156 to 157 °C. On the same count and under the same terms, as for `O=c1ccc2cnc(NCCCN3CCCCC3)nc2n1C1CCCCC1` [Example 166, 8-Cyclohexyl-2-(3-piperidin-1-yl-propylamino)-8H-pyrido[2,3-d]pyrimidin-7-one], the figure is 111 to 112 °C. In turn, `O=c1ccc2cnc(Nc3ccc(N4CCCCC4)cc3)nc2n1C1CC2CCC1C2` (stereo not drawn) [Example 181, 8-Bicyclo[2.2.1]hept-2-yl-2-(4-piperidin-1-yl-phenylamino)-8H-pyrido[2,3-d]pyrimidin-7-one] had a melting point of 243 to 244 °C.

`O=c1ccc2cnc(Nc3ccc(N4CCCC(CO)C4)cc3)nc2n1C1CCCCC1` (stereo not drawn) [Example 185, 8-Cyclohexyl-2-[4-(3-hydroxymethyl-piperidin-1-yl)-phenylamino]-8H-pyrido[2,3-d]pyrimidin-7-one] showed a melting point of 194 to 195 °C. Turning to `O=c1ccc2cnc(Nc3ccc(SC(F)(F)F)cc3)nc2n1C1CC2CCC1C2` (stereo not drawn) [Example 221, 8-Bicyclo[2.2.1]hept-2-yl-2-(4-trifluoromethylsulfanyl-phenylamino)-8H-pyrido[2,3-d]pyrimidin-7-one], the melting point fell in the range of 205 to 206 °C.

`O=c1ccc2cnc(NCc3ccccc3)nc2n1C1CCCCC1` [Example 222, 2-Benzylamino-8-cyclohexyl-8H-pyrido[2,3-d]pyrimidin-7-one] returned a melting point of 183 to 184 °C. On the same count and under the same terms, then `O=c1ccc2cnc(Nc3ccc(N4CCCCC4)cc3)nc2n1C1CC2CCC1C2` (stereo not drawn) [Example 229, 8-Bicyclo[2.2.1]hept-2-yl-2-(4-piperidin-1-yl-phenylamino)-8H-pyrido[2,3-d]pyrimidin-7-one], with 209 °C. For `COc1ccc(CNc2ncc3ccc(=O)n(C(C)C)c3n2)cc1OC` [Example 256, 2-(3,4-Dimethoxy-benzylamino)-8-isopropyl-8H-pyrido[2,3-d]pyrimidin-7-one], the melting point stood at 128 °C. On to `CCn1c(=O)c(C)cc2cnc(Nc3ccc(N4CCC(CCCN5CCOCC5)CC4)cc3)nc21` [Example 264, 8-Ethyl-6-methyl-2-{4-[4-(3-morpholin-4-yl-propyl)-piperidin-1-yl]-phenylamino}-8H-pyrido[2,3-d]pyrimidin-7-one], for which the melting point is 199 to 200 °C.
